Consider one compound from paper PMC4394749 (Journal of medicinal chemistry, 2015).

The subject of series [1] is HepG2 (hepatocellular carcinoma). As to conditions: read-out: IC50 Hep-G2; SRB; compound marked 'See ref [15]'; cited from earlier work.
In series [2] the test system is PC-3 cells. In words: Immunofluorescence staining of microtubules in PC-3 cells. The class given is cell-based, human. As to conditions: PC-3, 24 h.
Series [3] relates to PC-3 cells. Kind of series: Cell cycle analysis by flow cytometry. As to conditions: 2 µM, 24 h. The class given is cell-based, human.
Series [4] deals with MCF-7 (estrogen-receptor-positive, HER2-negative breast cancer). As to conditions: read-out: IC50 MCF-7; SRB; compound marked 'See ref [15]'; cited from earlier work.
For series [5], the system named is HCT-8 (human colon adenocarcinoma). The note with it: read-out: IC50 HCT-8; SRB; compound marked 'See ref [15]'; cited from earlier work.
For a further series, the system named is A549 (lung carcinoma). The note with it: read-out: IC50 A549; SRB; compound marked 'See ref [15]'; cited from earlier work.
Series [6] deals with MDA-MB-231 (triple-negative breast cancer). The note with it: read-out: IC50 MDA-MB-231; SRB; compound marked 'See ref [15]'; cited from earlier work.
Series [7] relates to KB-VIN (P-gp-overexpressing MDR subline of KB). As to conditions: read-out: IC50 KB-VIN; SRB; compound marked 'See ref [15]'; cited from earlier work.
Another series has as its system PC-3 (prostate cancer). As to conditions: read-out: IC50 PC-3; SRB; compound marked 'See ref [15]'; cited from earlier work.
A further series relates to KB-VIN cells. Kind of series: Cell cycle analysis by flow cytometry. The note with it: 6 or 24 h, PXL 3 µM, 4 0.5 µM, 8 2 µM. The class given is cell-based, human.
For the next series, the system named is KB cells. Kind of series: Cell cycle analysis by flow cytometry. The class given is cell-based, human. As to conditions: 6 or 24 h, PXL 0.02 µM, 4 0.5 µM, 8 2 µM.
The subject of series [8] is KB (epidermoid carcinoma of the nasopharynx). As to conditions: read-out: IC50 KB; SRB; compound marked 'See ref [15]'; cited from earlier work.
The target of series [9] is ZR-75-1 (estrogen-receptor-positive, HER2-positive breast cancer). The note with it: read-out: IC50 ZR-75-1; SRB; compound marked 'See ref [15]'; cited from earlier work.
The subject of series [10] is SK-BR-3 (HER2-overexpressing breast cancer). The note with it: read-out: IC50 SK-BR3; SRB; compound marked 'See ref [15]'; cited from earlier work.

`CCC1=C(O)c2c(oc(-c3csc4ccccc34)cc2=O)C(CC)(CC)C1=O` [Compound 4, 2-(benzo[b]thiophene-3′-yl)-6,8,8-triethyldesmosdumotin B]: the IC50 was 130 nM in series [1]; 720 nM in series [4]; 130 nM in series [5]; 60 nM in the series with A549 (lung carcinoma); 700 nM in [6]; 70 nM in series [7]. Also, the IC50 in the series with PC-3 (prostate cancer) is 160 nM; in series [8], 80 nM; in series [9] it was 850 nM; in series [10], 500 nM. In the series with PC-3 cells [2] (equitoxic concentrations: 0.2 µM 4, 0.2 µM CA-4, 5 µM VIN, 0.2 µM PXL), the microtubule morphology entry was “induced depolymerization of cytosolic microtubules as well monopolar (arrow heads) or multipolar spindle formations in the G2/M-phase”. Further, the “dose-dependent effects on microtubule morphology” value with PC-3 cells [2] (compounds 0.2, 2 or 20 µM, CA-4 0.002 or 20 µM) is “Dose-dependent disruption of both interphase microtubules and spindles”. For the same compound, the “effect on cell cycle distribution” value was “efficiently induced accumulation of G2/M phase cells” with PC-3 cells [3], “Accumulation of G2/M phase as well as S phase cells” with KB-VIN cells and “Accumulation of G2/M phase as well as S phase cells” with KB cells.
